In the experiment the test system is B/Malaysia/2506/04 virus. Also on record: species or system BALB/c mice. Conditions: mouse, in vivo.

As for `CCOC(=O)C1=C[C@@H](OC(CC)CC)[C@H](NC(C)=O)[C@@H](N)C1` [oseltamivir, Oseltamivir phosphate], the weight loss entry is given as “does not protect from weight loss”.
